# From patent US20080014187A1, “Compositions and Methods for Treating Hypertension and Inflammation” (priority 2006, published 2008)
# Assays:
# [1] = case study, patient with hypertension, blood pressure and side effects; format: in vivo, human; details: 30 mg CoQ10 at 9 AM, patient on 40 mg telmisartan in the evening; reading by 12 PM, from 140/90 at 8 AM
# Procedure: Because of these drug side effects, the patient subsequently dropped the amlodipine and took only a 40 mg daily dose of telmisartan in the evening before retiring. […] On one day with a reading of 140/90 at 8 AM, the patient took 30 mg of CoQ10 at 9 AM and their blood pressure sharply dropped to 103/71 by 12 PM. The patient subsequently began taking 30 mg CoQ10 in the morning and evening along with the evening only dose of 40 mg telmisartan.
# [2] = eight human clinical trials; cited from earlier work
# [3] = test system: serum IL-6 and TNF-alpha; details: reported in the literature; cited from earlier work
Structure (SMILES),blood pressure [1],decrease of mean diastolic blood pressure [2] [mm Hg],decrease of mean systolic blood pressure [2] [mm Hg],serum IL-6 [3],serum TNF-alpha [3]
"COC1=C(OC)C(=O)C(C/C=C(\C)CC/C=C(\C)CC/C=C(\C)CC/C=C(\C)CC/C=C(\C)CC/C=C(\C)CC/C=C(\C)CC/C=C(\C)CC/C=C(\C)CCC=C(C)C)=C(C)C1=O [CoQ10, Coenzyme Q10]",103/71,10,16,reduces,reduces
CCOC(=O)[C@H](CCc1ccccc1)N[C@@H](C)C(=O)N1Cc2ccccc2C[C@H]1C(=O)O [quinapril],–,–,–,lower,lower
